{"source": "paper PMC3763849", "about": "(ACS medicinal chemistry letters, 2013)", "key": {"[1]": {"test_system": "PBM cells", "assay": "Cellular pharmacology in PBM cells: intracellular nucleoside triphosphate levels", "type": "in vitro ADME, human"}, "[2]": {"test_system": "five tested cell lines (PBM, HepG2, Huh7, Vero, CEM)", "assay": "Cytotoxicity across the five tested cell systems", "type": "cell-based"}, "[3]": {"test_system": "HIV-1LAI", "assay": "HIV-1 susceptibility assay in human PBM cells infected with HIV-1LAI", "type": "cell-based", "settings": "for fold greater potency versus HIV-1 compared to parent nucleoside: phosphoramidate versus parent nucleoside"}, "[4]": {"test_system": "HBV", "assay": "Antiviral activity against HBV in the HepAD38 cell system", "type": "cell-based"}}, "note": "“Also recorded” adds a separate entry of the source.", "data": [{"smiles": "Nc1ncnc2c1ncn2[C@H]1CO[C@@H](CO)O1", "note": "[Compound 6, (−)-β-D-(2R,4R)-6-amino dioxolane adenosine]", "values": [{"measurement": "formation of dioxolane-A triphosphate", "setting": "[1]", "result": "found to form the dioxolane-A triphosphate"}]}, {"smiles": "OC[C@@H]1OC[C@H](n2cnc3c(NC4CC4)ncnc32)O1", "note": "[Compound 8]", "values": [{"measurement": "cytotoxicity in the five tested cell lines", "setting": "[2]", "result": "did not display any cytotoxicity"}, {"measurement": "activity versus HIV", "setting": "[3]", "result": "essentially not active"}, {"measurement": "activity versus HBV", "setting": "[4]", "result": "essentially not active"}]}, {"smiles": "CCOC(=O)[C@H](C)NP(=O)(OC[C@@H]1OC[C@H](n2cnc3c(N)ncnc32)O1)Oc1ccccc1", "note": "(stereo partly drawn) [Compound 17]", "values": [{"measurement": "fold greater potency versus HIV-1 compared to parent nucleoside", "setting": "[3]", "result": "up to 3,600 fold"}, {"measurement": "formation of dioxolane-A triphosphate", "setting": "[1]", "result": "found to form the dioxolane-A triphosphate; also recorded: highest levels of dioxolane-A triphosphate"}]}, {"smiles": "CCOC(=O)CCc1ccccc1OP(=O)(N[C@@H](C)C(=O)OCC)OC[C@@H]1OC[C@H](n2cnc3c(N)ncnc32)O1", "note": "(stereo partly drawn) [Compound 18]", "values": [{"measurement": "fold greater potency versus HIV-1 compared to parent nucleoside", "setting": "[3]", "result": "up to 3,600 fold"}, {"measurement": "formation of dioxolane-A triphosphate", "setting": "[1]", "result": "found to form the dioxolane-A triphosphate; also recorded: highest levels of dioxolane-A triphosphate"}]}, {"smiles": "CCOC(=O)[C@H](C)NP(=O)(OC[C@@H]1OC[C@H](n2cnc3c(OC)ncnc32)O1)Oc1ccccc1", "note": "(stereo partly drawn) [Compound 19]", "values": [{"measurement": "fold greater potency versus HIV-1 compared to parent nucleoside", "setting": "[3]", "result": "up to 3,600 fold"}]}, {"smiles": "CCOC(=O)CCc1ccccc1OP(=O)(N[C@@H](C)C(=O)OCC)OC[C@@H]1OC[C@H](n2cnc3c(OC)ncnc32)O1", "note": "(stereo partly drawn) [Compound 20]", "values": [{"measurement": "fold greater potency versus HIV-1 compared to parent nucleoside", "setting": "[3]", "result": "up to 3,600 fold"}]}, {"smiles": "CCOC(=O)[C@H](C)NP(=O)(OC[C@@H]1OC[C@H](n2cnc3c(NC4CC4)ncnc32)O1)Oc1ccccc1", "note": "(stereo partly drawn) [Compound 22]", "values": [{"measurement": "cytotoxicity in the five tested cell lines", "setting": "[2]", "result": "no observed cytotoxicity"}, {"measurement": "fold greater potency versus HIV-1 compared to parent nucleoside", "setting": "[3]", "result": "up to 3,600 fold"}, {"measurement": "formation of dioxolane-A triphosphate", "setting": "[1]", "result": "found to form the dioxolane-A triphosphate"}]}, {"smiles": "CCOC(=O)CCc1ccccc1OP(=O)(N[C@@H](C)C(=O)OCC)OC[C@@H]1OC[C@H](n2cnc3c(NC4CC4)ncnc32)O1", "note": "(stereo partly drawn) [Compound 23]", "values": [{"measurement": "formation of dioxolane-A triphosphate", "setting": "[1]", "result": "found to form the dioxolane-A triphosphate"}]}, {"smiles": "Nc1nc(N)c2ncn([C@H]3CO[C@@H](CO)O3)c2n1", "note": "[DAPD, Amdoxovir, reference compound]", "values": [{"measurement": "activity versus HBV", "setting": "[4]", "result": "low micromolar"}]}]}
